Data on seven molecules can be found in EP0275742A1, “5-Hydroxymethyl derivatives of 2-oxazolidinones, their preparation and their therapeutical use” (SYNTHELABO, priority 1986, dated 1988).

One assay has as its target T1, MAO-A (Rattus norvegicus, UniProt P21396).
T1 construct: un homogénat de cerveau total de rat mâle Sprague-Dawley; from tissue; host or cells: whole brain homogenate of male Sprague-Dawley rat
T1 sequence (P21396 1-526): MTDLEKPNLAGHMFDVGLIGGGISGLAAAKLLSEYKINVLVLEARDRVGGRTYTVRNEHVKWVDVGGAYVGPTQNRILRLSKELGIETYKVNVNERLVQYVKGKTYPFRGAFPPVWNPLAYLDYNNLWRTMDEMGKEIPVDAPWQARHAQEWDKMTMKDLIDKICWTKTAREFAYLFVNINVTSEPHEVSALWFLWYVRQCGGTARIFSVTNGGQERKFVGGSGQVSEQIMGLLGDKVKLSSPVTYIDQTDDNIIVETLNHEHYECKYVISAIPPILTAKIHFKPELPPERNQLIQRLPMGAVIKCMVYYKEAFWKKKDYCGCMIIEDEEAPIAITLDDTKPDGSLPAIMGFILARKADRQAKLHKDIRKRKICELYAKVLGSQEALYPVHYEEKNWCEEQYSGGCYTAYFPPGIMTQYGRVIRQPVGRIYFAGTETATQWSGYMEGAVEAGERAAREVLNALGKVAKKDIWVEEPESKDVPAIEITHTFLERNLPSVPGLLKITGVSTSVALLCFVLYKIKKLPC
Briefly: MAO-A inhibition in vitro, rat brain homogenate (protocol of DOSTERT P. et coll.). It counts as biochemical. The conditions noted are these: 20 min preincubation; [14C] sérotonine 480 µM, KM = 100 µM; whole brain homogenate of male Sprague-Dawley rat, 1 g tissue/16 ml phosphate buffer pH 7,4; Ki calculated from CI 50. The procedure:
(§1) Cette activité-a été mise en évidence par mise en oeuvre du protocole décrit par DOSTERT P. et coll. dans J. Pharm. Pharmacol., 1983, 35, 161-165; ce protocole est basé sur des tests enzymatiques menés avec ou sans préincubation notamment à 37° C pendant 20 minutes et il permet de mesurer in vitro l'effet inhibiteur à l'égard de la MAO-A et de la MAO-B du cerveau de rat.
(§2) Le tableau IV ci-après rassemble les constantes d'inhibition Ki(A) et Ki(B) respectivement des formes A et B de la MAO, obtenues pour un certain nombre de composés selon l'invention en suivant le protocole ci-dessus appliqué à un homogénat de cerveau total de rat mâle Sprague-Dawley, à 1 g de tissu/16 ml de tampon phosphate de pH 7,4.

Another assay addresses T2, MAO-B (Rattus norvegicus, UniProt P19643).
T2 construct: un homogénat de cerveau total de rat mâle Sprague-Dawley; from tissue; host or cells: whole brain homogenate of male Sprague-Dawley rat
T2 sequence (P19643 1-520): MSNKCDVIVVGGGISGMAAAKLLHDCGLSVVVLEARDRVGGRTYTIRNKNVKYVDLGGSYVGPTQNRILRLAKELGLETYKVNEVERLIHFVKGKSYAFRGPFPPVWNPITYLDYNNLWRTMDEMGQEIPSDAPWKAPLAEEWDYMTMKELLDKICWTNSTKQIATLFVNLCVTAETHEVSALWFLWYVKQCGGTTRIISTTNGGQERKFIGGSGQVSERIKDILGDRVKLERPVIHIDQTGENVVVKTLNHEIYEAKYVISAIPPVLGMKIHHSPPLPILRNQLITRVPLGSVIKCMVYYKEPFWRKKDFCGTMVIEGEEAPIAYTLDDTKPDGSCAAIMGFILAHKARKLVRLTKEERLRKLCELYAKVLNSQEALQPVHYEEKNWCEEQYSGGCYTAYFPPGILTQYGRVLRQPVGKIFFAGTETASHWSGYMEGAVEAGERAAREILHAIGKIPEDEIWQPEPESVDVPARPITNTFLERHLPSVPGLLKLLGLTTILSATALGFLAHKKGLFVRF
The assay can be described thus: MAO-B inhibition in vitro, rat brain homogenate (protocol of DOSTERT P. et coll.). It counts as biochemical. The conditions noted are these: for Ki: 20 min preincubation, [14C] phényléthylamine 12 µM, KM = 6 µM, whole brain homogenate of male Sprague-Dawley rat, 1 g tissue/16 ml phosphate buffer pH 7,4, Ki calculated from CI 50; for Ki (A) / Ki (B): selectivity ratio MAO-A over MAO-B, rat brain homogenate. The protocol: as §1, §2

The Ki is a dissociation constant, usually derived from enzyme kinetics or from competition with a known ligand. For the molecule `C[C@@H](O)[C@H]1CN(c2ccc(OCC3CCCCC3)cc2)C(=O)O1` [compound 200443], the Ki on MAO-A is 10300 nM; on MAO-B, 40 nM. Moreover, the “Ki (A) / Ki (B)” value at MAO-B was 259.

`CC(C)CCOc1ccc(N2C[C@H]([C@@H](C)O)OC2=O)cc1` [compound 200497]: the Ki on MAO-A was 6000 nM; at MAO-B it was 168 nM. Further, the “Ki (A) / Ki (B)” value at MAO-B was found to be 36.

For the molecule `C[C@@H](O)[C@H]1CN(c2ccc(OCc3ccc(F)c(Cl)c3)cc2)C(=O)O1` [compound 200498], the Ki at MAO-A was 9000 nM. Also, at MAO-B, the inhibition constant Ki was 14 nM and the “Ki (A) / Ki (B)” value is reported as 634.

As to `C[C@H](O)[C@@H]1CN(c2ccc(OCc3cccc(Cl)c3)cc2)C(=O)O1` [compound 300872, [(chloro-3 benzyloxy)-4 phényl]-3 (hydroxy-1 étant)-5 oxazolidinone-2], the Ki was greater than 1000 nM at MAO-A and 1600 nM at MAO-B. The “Ki (A) / Ki (B)” value at MAO-B is on record as > 0,6.

As to `C[C@@H](O)[C@H]1CN(c2ccc(OCc3cccc(Cl)c3)cc2)C(=O)O1` [compound 300873, [(chloro-3 benzyloxy)-4 phényl)-3 (hydroxy-1 éthyl)-5 oxazolidinone-2], the Ki on MAO-A is greater than 17200 nM. For the same molecule, on MAO-B, the Ki was 27 nM and the “Ki (A) / Ki (B)” value is greater than 640.

Regarding “[(chloro-3 benzyloxy)-4 phényl]-3 (hydroxy-1 éthyl)-5 oxazolidinone-2 [compound 340177]”, the Ki on MAO-A is 2260 nM. For the same molecule, on MAO-B, the Ki is 343 nM and the “Ki (A) / Ki (B)” value turned out to be 7.

On to “[(chloro-3 benzyloxy)-4-phenyl]-3 (hydroxy-1 éthyl)-5 oxazolidinone-2 [compound 340176]”, for which the Ki on MAO-A is 476 nM. Moreover, on MAO-B, the Ki is 100 nM and the “Ki (A) / Ki (B)” value is reported as 5.
